Data: US3962282A, “Juvenile hormone mimics” (priority 1974, dated 1976)

Assays:
Tenebrio molitor pupae = assay: topical application to Tenebrio molitor pupae, maturation inhibition; type: in vivo; conditions: rating scale 0-4
Method in brief: (§1)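 Compounds applied topically, 1 μL acetone solution at 10%, 1% or 0.5%, to ten specimens per insect per concentration, alongside acetone and untreated controls; scored after about 8–10 days. Juvenile/adult characteristics rated 0–3 (Tenebrio 0–4), ≥2 meaning unable to reproduce; unreported specimens died during metamorphosis.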

wax moth = assay: topical application to wax moth, fifth larval stage, maturation inhibition; type: in vivo
Method in brief: as §1

Southern corn rootworm = Southern corn rootworm larvae in treated petri dishes, adult emergence; type: in vivo, Diabrotica undecimpunctata; conditions: 21 days
Experimental: Petri dishes containing 150 g. of sand were autoclaved for one hour. Corn seed which had been soaked overnight was rinsed first with a solution of 10 percent alcohol, 20 percent chlorox, and 70 percent water for 15 minutes and then with clear water. Three to four seeds were placed in each dish. The dishes were then moistened with 15 ml. of a 100 ppm. solution of a fungicide. After 24 hours, ten Southern corn rootworm eggs (Diabrotica undecimpunctata) were placed in each dish. The dishes were maintained in an incubator in the dark for 14 days. New petri dishes were prepared as described except that the eggs were not added and 2,6-diemthyl-9-(3,4-methylenedioxyphenyl)-2,6-nonadiene was added at a rate of 100 ppm. or 10 ppm. Ten dishes at each treatment rate and ten controls were used. Three larvae from the incubated dishes were placed in each of the treated dishes and each control dish. […] There were a total of 15 adults in the ten dishes treated at 10 ppm. and a total of 19 adults in the ten control dishes.

aphid nymphs = assay: application to aphid nymphs in acetone; type: in vivo, Aphis gossypi; conditions: 3 days
Experimental: In another test, female aphids were placed on young squash plants and allowed to produce young for 24 hours. After 24 hours, all adult aphids were removed from the plants and the young were maintained on the plants for an additional 48-hour period. This gave an aphid nymph population having an age of 48 to 72 hours. To each nymph was applied […]. of a 10 percent, 1 percent, or 0.5 percent solution of 2.6- dimethyl-9-(3,4-methylenedioxyphenyl)-2,6-nonadiene or 7,8-epoxy-4-ethyl-8-methyl-1-(3,4-methylenedioxyphenyl)-3-decene in acetone and the aphid nymphs were transferred to new squash plants and observed for possible effects. Ten nymphs were treated with each concentration of each compound and 10 were treated with acetone alone while 10 were not treated to serve as controls. […] There was only one dead nymph treated with acetone alone and one dead nymph in the nontreated controls.

[1] = test system: Mexican bean beetle larvae; assay: spray of caged flats of bean plants with Mexican bean beetle larvae; type: in vivo
Experimental: Six-foot by 12-foot caged flats were planted with Bountiful variety bean plants in two 12-foot rows. Into each cage were introduced 100 Mexican bean beetle larvae. Each cage was then sprayed with 500 ml. of a solution prepared by diluting a 48 percent emulsifiable concentrate of 2,6-dimethyl-9-(3,4-methylenedioxyphenyl)-2,6-nonadiene to the desired concentration. Two flats were treated at each concentration and two were used as controls.

[2] = test system: Mexican bean beetle larvae; assay: fumigant and residual activity in jars on Mexican bean beetle larvae; type: in vivo
Experimental: Fumigant and residual activity of 2,6-dimethyl-9-(3,4-methylenedioxyphenyl)-2,6-nonadiene was determined in the following manner. One milliliter of a 1 percent, a 0.1 percent or a 0.01 percent solution of the test compound was placed in the bottom of a one pint jar. A control was prepared using just acetone. The acetone was allowed to evaporate and 10 Mexican bean beetle larvae were placed on a screen 5 inches from the bottom. The jar was closed for one week at which time the controls emerge as adults and the treated ones are rated as described above. The larvae are replaced weekly.

CC(C)=CCCC(C)=CCCc1ccc2c(c1)OCO2 [2,6-dimethyl-9-(3,4-methylenedioxyphenyl)-2,6-nonadiene]
number of specimens in rating 4 (Tenebrio molitor pupae; 0.5%): 9 specimens | number of specimens in rating 4 (Tenebrio molitor pupae; 1%): 10 specimens | number of specimens in rating 4 (Tenebrio molitor pupae; 10%): 10 specimens | number of specimens in rating 0 (wax moth; 0.5%, rating scale 0-3): 8 specimens | number of specimens in rating 1 (wax moth; 0.5%, rating scale 0-3): 1 specimens | number of specimens in rating 0 (wax moth; 1%, rating scale 0-3): 9 specimens | number of specimens in rating 3 (wax moth; 1%, rating scale 0-3): 1 specimens | number of specimens in rating 0 (wax moth; 10% in acetone, 1 microliter topical, rating scale 0 (no effect) to 3 (maximum)): 7 specimens | number of specimens in rating 1 (wax moth; 10%, rating scale 0-3): 2 specimens | number of specimens in rating 3 (wax moth; 10%, rating scale 0-3): 1 specimens | total adults in the ten dishes (Southern corn rootworm; 10 ppm, 19 adults in ten control dishes): 15 adults | adults emerged (Southern corn rootworm; 100 ppm): no adults had emerged | dead nymphs (aphid nymphs; 0.5 percent): nine of the ten | dead nymphs (aphid nymphs; 1 percent): all of the nymphs | dead nymphs (aphid nymphs; 10 percent): all of the nymphs | % Control ([1]; 0.1 lbs./acre): 13% | % Control ([1]; 0.2 lbs./acre): 71.5% | % Control ([1]; 0.4 lbs./acre): 75.5% | % Control ([1]; 0.8 lbs./acre): 98.5% | number in rating 0 ([2]; Fifteenth Week, 0.01%): 10 | number in rating 0 ([2]; Fifteenth Week, 0.1%): 10 | number in rating 3 ([2]; Fifteenth Week, 1%): 10 | number in rating 0 ([2]; Fifth Week, 0.01%): 10 | number in rating 3 ([2]; Fifth Week, 0.1%): 10 | number in rating 3 ([2]; Fifth Week, 1%): 10 | number in rating 0 ([2]; First Week, 0.01% (0.1 mg.)): 5 | number in rating 2 ([2]; First Week, 0.01% (0.1 mg.)): 1 | number in rating 3 ([2]; First Week, 0.01% (0.1 mg.)): 4 | number in rating 3 ([2]; First Week, 0.1% (1 mg.)): 10 | number in rating 2 ([2]; First Week, 1% (10 mg.)): 1 | number in rating 3 ([2]; First Week, 1% (10 mg.)): 9 | number in rating 0 ([2]; Second Week, 0.01%): 4 | number in rating 2 ([2]; Second Week, 0.01%): 2 | number in rating 3 ([2]; Second Week, 0.01%): 4 | number in rating 3 ([2]; Second Week, 0.1%): 10 | number in rating 0 ([2]; Second Week, 1%): 1 | number in rating 3 ([2]; Second Week, 1%): 10 | number in rating 0 ([2]; Tenth Week, 0.01%): 10 | number in rating 0 ([2]; Tenth Week, 0.1%): 5 | number in rating 1 ([2]; Tenth Week, 0.1%): 2 | number in rating 2 ([2]; Tenth Week, 0.1%): 1 | number in rating 3 ([2]; Tenth Week, 0.1%): 2 | number in rating 3 ([2]; Tenth Week, 1%): 10 | number in rating 3 ([2]; Twenty-second Week, 1%): 10
